Measurements from US10174037B2, “Dihydropyrazolopyrimidinone compounds as PDE2 inhibitors” (Merck Sharp & Dohme Corp., priority 2015, dated 2019).

Biological target: human PDE2A1 (Homo sapiens (Human), UniProt O00408)
Assay: PDE selectivity IMAP FP assay, human PDE2A1
Type: biochemical
Conditions: Human PDE2; Lab B; read-out: Human PDE2 Ki (nM) Lab B
Procedure: Selectivity for PDE2, as compared to other PDE families, was assessed using the IMAP® technology. Human PDE10A2 enzyme was prepared from cytosolic fractions of transiently transfected HEK cells.
A Labcyte POD 810 (Labcyte, Sunnyvale, Calif.) was used to dispense 200 nL from each well of the titration plate to make eleven copies of the assay plate for each titration, one copy for each PDE enzyme. A solution of each enzyme (dilution from aliquots, sufficient to produce 20% substrate conversion) and a separate solution of FAM-labeled cAMP or FAM-labeled cGMP from Molecular Devices (Sunnyvale, Calif., product # R7506 or cGMP#R7508), at a final concentration of 50 nM were made in the assay buffer (10 mM Tris HCl, pH 7.2, 10 mM MgCl2, 0.05% NaN3 0.01% Tween-20, and 1 mM DTT). Note that the substrate for PDE2 is 50 nM FAM cAMP containing 1000 nM of cGMP. The enzyme and the substrate were then added to the assay plates in two consecutive additions of 10 μL and then shaken to mix. The reaction was allowed to proceed at room temperature for 60 minutes. A binding solution was then made from the kit components, comprised of 80% Solution A, 20% Solution B and binding reagent at a volume of 1/600 the total binding solution. The enzymatic reaction was stopped by addition of 60 μL of the binding solution to each well of the assay plate. […] The plates were incubated at room temperature for one hour, then the parallel and perpendicular fluorescence was measured using a Tecan Genios Pro plate reader (Tecan, Switzerland). […] The intrinsic PDE2 inhibitory activity of a compound which may be used in accordance with the present invention may be determined by these assays. […]
The PDE2 Ki is a measure of the ability of the test compound to inhibit the action of the PDE2 enzyme.

Chain of human PDE2A1 (O00408 other isoform, or with tags, fused parts or gaps): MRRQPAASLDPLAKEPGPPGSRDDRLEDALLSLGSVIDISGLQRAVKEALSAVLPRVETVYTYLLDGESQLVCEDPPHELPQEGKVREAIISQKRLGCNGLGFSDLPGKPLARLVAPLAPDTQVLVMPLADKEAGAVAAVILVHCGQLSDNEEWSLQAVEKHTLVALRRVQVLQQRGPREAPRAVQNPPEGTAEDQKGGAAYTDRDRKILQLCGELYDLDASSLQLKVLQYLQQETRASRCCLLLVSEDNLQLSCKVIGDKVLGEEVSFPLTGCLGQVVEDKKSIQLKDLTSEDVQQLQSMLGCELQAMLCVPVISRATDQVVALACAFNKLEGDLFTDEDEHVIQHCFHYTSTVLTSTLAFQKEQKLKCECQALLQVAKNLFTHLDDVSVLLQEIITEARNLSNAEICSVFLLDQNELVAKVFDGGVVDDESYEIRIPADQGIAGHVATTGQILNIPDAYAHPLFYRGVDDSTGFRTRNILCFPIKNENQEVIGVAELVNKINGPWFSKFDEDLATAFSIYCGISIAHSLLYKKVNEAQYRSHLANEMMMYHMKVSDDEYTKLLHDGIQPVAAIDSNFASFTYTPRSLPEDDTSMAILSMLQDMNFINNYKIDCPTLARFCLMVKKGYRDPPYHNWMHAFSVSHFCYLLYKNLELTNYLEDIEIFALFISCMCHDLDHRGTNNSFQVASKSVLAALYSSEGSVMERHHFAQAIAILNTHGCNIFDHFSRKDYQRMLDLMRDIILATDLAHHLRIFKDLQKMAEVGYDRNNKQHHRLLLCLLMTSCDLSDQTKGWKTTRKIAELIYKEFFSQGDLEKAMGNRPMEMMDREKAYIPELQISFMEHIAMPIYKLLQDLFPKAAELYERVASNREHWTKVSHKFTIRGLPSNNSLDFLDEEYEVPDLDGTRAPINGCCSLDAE

Structure (SMILES)	Ki [nM]
CC(C)(C)C(c1ccc(C(F)(F)F)c(F)c1)n1nc(CC(F)(F)F)c2c(=O)[nH]c(O)nc21 (single isomer, unassigned) [Example 247, (S)- or (R)-1-(1-(3-Fluoro-4-(trifluoromethyl)phenyl)-2,2-dimethylpropyl)-6-hydroxy-3-(2,2,2-trifluoroethyl)-1H-pyrazolo[3,4-d]pyrimidin-4(5H)-one]	> 2960
CC(c1ccc(C(C)(F)F)cc1)n1nc(CO)c2c(=O)[nH]c(N(C)C)nc21 (single isomer, unassigned) [Example 102, (R)- or (S)-1-(1-(4-(1,1-Difluoroethyl)phenyl)ethyl)-6-(dimethylamino)-3-(hydroxymethyl)-1H-pyrazolo[3,4-d]pyrimidin-4(5H)-one]	9.9
CC(c1ccc(C(F)F)cc1)n1nc(CF)c2c(=O)[nH]c(N(C)C)nc21 (single isomer, unassigned) [Example 190, (R)- or (S)-1-(1-(4-(Difluoromethyl)phenyl)ethyl)-6-(dimethylamino)-3-(fluoromethyl)-1H-pyrazolo[3,4-d]pyrimidin-4(5H)-one]	27
CN(C)c1nc2c(c(CF)nn2C(c2ccc(C(F)(F)F)c(F)c2)C2CC2)c(=O)[nH]1 (single isomer, unassigned) [Example 180, (R)- or (S)-1-(Cyclopropyl(3-fluoro-4-(trifluoromethyl)phenyl)methyl)-6-(dimethylamino)-3-(fluoromethyl)-1H-pyrazolo[3,4-d]pyrimidin-4(5H)-one]	1.2
CCC(c1ccc(C(F)(F)F)cc1)n1nc(CO)c2c(=O)[nH]c(N(C)C)nc21 (single isomer, unassigned) [Example 72, (R)- or (S)-6-(Dimethylamino)-3-(hydroxymethyl)-1-(1-(4-(trifluoromethyl)phenyl)propyl)-1H-pyrazolo[3,4-d]pyrimidin-4(5H)-one]	2.9
CN(C)c1nc2c(c(CO)nn2C(c2ccc(C(C)(F)F)cc2F)C2CC2)c(=O)[nH]1 (single isomer, unassigned) [Example 352, (R)- or (S)-1-(Cyclopropyl(4-(1,1-difluoroethyl)-2-fluorophenyl)methyl)-6-(dimethylamino)-3-(hydroxymethyl)-1H-pyrazolo[3,4-d]pyrimidin-4(5H)-one]	1.2
CCC(c1ccc(OC(F)F)c(F)c1)n1nc(CF)c2c(=O)[nH]c(N(C)C)nc21 (single isomer, unassigned) [Example 340, (R)- or (S)-1-(1-(4-(Difluoromethoxy)-3-fluorophenyl)propyl)-6-(dimethylamino)-3-(fluoromethyl)-1H-pyrazolo[3,4-d]pyrimidin-4(5H)-one]	0.58
CC(c1ccc(OC(F)(F)F)cc1F)n1nc(C(F)(F)F)c2c(=O)[nH]c(O)nc21 (single isomer, unassigned) [Example 308, (S)- or (R)-1-{1-[2-Fluoro-4-(trifluoro-methoxy)phenyl]ethyl}-6-hydroxy-3-(trifluoromethyl)-1,5-dihydro-4H-pyrazolo[3,4-d]pyrimidin-4-one]	213
CC1(C(c2ccc(C(F)(F)F)c(F)c2)n2nc(CO)c3c(=O)[nH]c(O)nc32)CC1 (single isomer, unassigned) [Example 17]	55
O=c1[nH]c(O)nc2c1c(C(F)(F)F)nn2C(c1ccc(C(F)(F)F)cc1)C1CC1 (single isomer, unassigned) [Example 335, (R)- or (S)-1-(Cyclopropyl(4-(trifluoromethyl)phenyl)methyl)-6-hydroxy-3-(trifluoromethyl)-1H-pyrazolo[3,4-d]pyrimidin-4(5H)-one]	137
O=c1[nH]c(O)nc2c1c(C(F)(F)F)nn2C1(c2ccc(C(F)(F)F)cc2)CC1 [Example 354, 6-Hydroxy-3-(trifluoromethyl)-1-(1-(4-(trifluoromethyl)phenyl)cyclopropyl)-1H-pyrazolo[3,4-d]pyrimidin-4(5H)-one]	2.4
CC(c1ccc(OC(F)(F)F)c(F)c1)n1nc(C(F)(F)F)c2c(=O)[nH]c(O)nc21 (single isomer, unassigned) [Example 309, (R)- or (S)-1-{1-[3-Fluoro-4-(trifluoromethoxy)phenyl]ethyl}-6-hydroxy-3-(trifluoromethyl)-1,5-dihydro-4H-pyrazolo[3,4-d]pyrimidin-4-one]	2.7
CC(c1ccc(CC(F)(F)F)cc1)n1nc(CO)c2c(=O)[nH]c(N(C)C)nc21 (single isomer, unassigned) [Example 70, (R)- or (S)-6-(Dimethylamino)-3-(hydroxymethyl)-1-(1-(4-(2,2,2-trifluoroethyl)phenyl)ethyl)-1H-pvrazolo[3,4-d]pyrimidin-4(5H)-one]	4.1
CN(C)c1nc2c(c(CF)nn2C(c2ccc(C(F)(F)F)cc2)C2CC2)c(=O)[nH]1 (single isomer, unassigned) [Example 178, (R)- or (S)-1-(Cyclopropyl(4-(trifluoromethyl)phenyl)methyl)-6-(dimethylamino)-3-(fluoromethyl)-1H-pyrazolo[3,4-d]pyrimidin-4(5H)-one]	1.1

More lines, now with the values ahead:

Ki [nM]	Structure (SMILES)
13	CC(c1ccc(CC(F)F)cc1)n1nc(C(F)(F)F)c2c(=O)[nH]c(O)nc21 (single isomer, unassigned) [Example 320, (S)- or (R)-1-(1-(4-(2,2-Difluoroethyl)phenyl)ethyl)-6-hydroxy-3-(trifluoromethyl)-1H-pyrazolo[3,4-d]pyrimidin-4(5H)-one]
6.1	CC(c1ccc(OC(F)F)cc1)n1nc(C(F)(F)F)c2c(=O)[nH]c(O)nc21 (single isomer, unassigned) [Example 316, (S)- or (R)-1-{1-[4-(Difluoromethoxy)phenyl]ethyl}-6-hydroxy-3-(trifluoromethyl)-1,5-dihydro-4H-pyrazolo[3,4-d]pyrimidin-4-one]
134	CC(C)C(c1ccc(C(F)(F)F)cc1)n1nc(C(F)(F)F)c2c(=O)[nH]c(O)nc21 (single isomer, unassigned) [Example 333, (R)- or (S)-6-Hydroxy-1-(2-methyl-1-(4-(trifluoromethyl)phenyl)propyl)-3-(trifluoromethyl)-1H-pyrazolo[3,4-d]pyrimidin-4(5H)-one]
137	CC(c1ccc(C(F)(F)F)cc1)n1nc(CC(F)F)c2c(=O)[nH]c(O)nc21 (single isomer, unassigned) [Example 292]
~1900	CC(c1ccc(C(F)(F)C(F)(F)F)cc1)n1nc(CO)c2c(=O)[nH]c(O)nc21 (single isomer, unassigned) [Example 32, (S)- or (R)-6-Hydroxv-3-(hydroxymethyl)-1-(1-(4-(perfluoroethyl)phenyl)ethyl)-1H-pyrazolo[3,4-d]pyrimidin-4(5H)-one]
2.3	C[C@@H](c1ccc(C(F)(F)F)cc1)n1nc(CO)c2c(=O)[nH]c(N3CC(F)(F)C3)nc21 [Example 159, 6-(3,3-Difluoroazetidin-1-yl)-3-(hydroxymethyl)-1-{(1S)-1-[4-(trifluoromethyl)phenyl]ethyl}-1,5-dihydro-4H-pyrazolo[3,4-d]pyrimidin-4-one]
2.1	C[C@@H](c1ccc(C(F)(F)F)cc1)n1nc(C(F)(F)F)c2c(=O)[nH]c(N(C)C)nc21 [Example 339, (S)-6-(Dimethylamino)-3-(trifluoromethyl)-1-(1-(4-(trifluoromethyl)phenyl)ethyl)-1H-pyrazolo[3,4-d]pyrimidin-4(5H)-one]
